Test results reported in PMC10364322, “Evaluation of chronic drug-induced electrophysiological and cytotoxic effects using human-induced pluripotent stem cell-derived cardiomyocytes (hiPSC-CMs)” (Frontiers in Pharmacology, 2023).
Read-outs that look alike come from different tables or passages of the source.

Tests used:
cynomolgus monkeys = tested on: cynomolgus monkeys; design: method as in Gill et al., 2017; conditions: ref Gill et al., 2017; cited from earlier work
[1] = tested on: hiPSC-CMs (iCell-Cardiomyocytes^2); experiment: ApoLive-Glo Multiplex Assay: viability (live cells); assay type: cell-based, human
Experimental: (§1) iCell-Cardiomyocytes^2 (Fujifilm Cellular Dynamics Inc., Madison, WI, United States) were seeded into 96 well-plates (Greiner Bio One, ref. 655946) according to the manufacturer instructions, at a density of 50 k cells/well. […] To assess effects on viability and cytotoxicity, two assay combination kits were used: 1) RealTime-Glo™ Annexin V Apoptosis and Necrosis Assay [Promega, JA1011 ([Kupcho et al., 2019])] and 2) ApoLive-Glo Multiplex Assay [Promega, G6410 ([Flörkemeier et al., 2022])]. The assays were performed according to manufacturer instructions. The experiments were repeated at 24, 48, and 72 h in order to assess any time-dependent change in live cells or activation of cell-death pathways.
(§2) The nonparametric Wilcoxon-Mann Whitney Test was used to compare the percent change from the baseline (Δ%) value between the group treated with the compound at a given concentration and the group treated with the DMSO at each matching time points. A two-sided test at 5% significance level was considered. […] To assess the physiological relevance of changes, a tolerance interval of DMSO experiments was calculated at each time point, for each parameter. Specifically, the Δ% values of all (pooled) DMSO wells (N = 81) were used to obtain the non-parametric 80%–95% (p = 0.80 & 1-α = 0.95) tolerance interval (TI). TIs indicate an interval where, with a certain confidence level (1- α = 0.95), a specified proportion (p = 0.80) of percent change for DMSO data falls. The lower and upper limits based on the TI values were used as cut-offs for the interpretation of the changes. For the cytotoxicity assays, measurements of fluorescence (after background fluorescence subtraction) from wells treated with the compounds were normalized by the average value of vehicle experiments (DMSO 0.1%) to obtain a DMSO-corrected, delta/delta percent change. Experiments from each condition, as delta/delta percent, were averaged and expressed as mean ± SD. Statistical analysis was performed using a non-parametric test (Kruskal-Wallis) and each treatment condition was compared to the relative DMSO 0.1%. Differences were considered statistically significant when the p-value was smaller than 0.05.

[2] = tested on: caspases 3,7 in hiPSC-CMs; experiment: ApoLive-Glo Multiplex Assay: apoptosis, caspases 3,7 activation; assay type: cell-based, human
Experimental: as §1, §2

[3] = tested on: Annexin V activation in hiPSC-CMs; assay type: cell-based
Experimental: The assays were performed according to manufacturer instructions.
as §2, with “Specifically, the Δ% values of all (pooled) DMSO wells (N = 81) were used to obtain the non-parametric 80%–95% (p = 0.80 & 1-α = 0.95) tolerance interval (TI).” left out

[4] = tested on: hiPSC-CMs (iCell-Cardiomyocytes^2); experiment: RealTime-Glo Annexin V Apoptosis and Necrosis Assay: necrosis; assay type: cell-based, human
Experimental: as §1, §2

[5] = cited from earlier work; for Free Cmax: free therapeutic Cmax in humans, ref FDA-approved drug packages, PharmaPendium
patients = tested on: patients; design: method as in Wenningmann et al., 2019; conditions: doses above 700 mg/m^2; ref Wenningmann et al., 2019; cited from earlier work
[6] = tested on: human embryonic stem cell-derived cardiomyocytes; design: method as in Hihara et al., 2014; conditions: 10 µM; 24 h-treatment; 4% in vehicle-treated wells; ref Hihara et al., 2014; cited from earlier work

COc1nc(N)nc2c1ncn2[C@@H]1O[C@H](COP(=O)(N[C@@H](C)C(=O)OCC(C)(C)C)Oc2cccc3ccccc23)[C@@H](O)[C@@]1(C)O (stereo partly drawn) [BMS-986094]
estimated dose that caused cardiotoxicity (cynomolgus monkeys): 3 µM

C[C@H](CS)C(=O)N1CCC[C@H]1C(=O)O [Captopril]
Live Cells (viability), Mean±SD ([1]; 10 µM, 24h): -8.4±17.4 Δ/Δ%
Live Cells (viability), Mean±SD ([1]; 10 µM, 48h): -9.1±9.5 Δ/Δ%
Live Cells (viability), Mean±SD ([1]; 10 µM, 72h): 2.4±8.5 Δ/Δ%
number of live cells ([1]; any of the time points (24, 48, 72 h)): did not show any significant change in live cell number
Caspases 3, 7 (apoptosis activation), Mean±SD ([2]; 10 µM, 24h): -6.9±11.1 Δ/Δ%
Caspases 3, 7 (apoptosis activation), Mean±SD ([2]; 10 µM, 48h): -3±10.7 Δ/Δ%
Caspases 3, 7 (apoptosis activation), Mean±SD ([2]; 10 µM, 72h): -3.6±5 Δ/Δ%
apoptosis activation ([3]; 24, 48, 72 h): did not display any significant changes in necrosis or apoptosis activation
Necrosis, Mean±SD ([4]; 10 µM, 24h): 21.5±33.7 Δ/Δ%
Necrosis, Mean±SD ([4]; 10 µM, 48h): -8.1±21.1 Δ/Δ%
Necrosis, Mean±SD ([4]; 10 µM, 72h): 13.9±44.2 Δ/Δ%
necrosis activation ([4]; 24, 48, 72 h): did not display any significant changes in necrosis or apoptosis activation
Free Cmax [5]: 2300 nM

COc1cccc2c1C(=O)c1c(O)c3c(c(O)c1C2=O)C[C@@](O)(C(=O)CO)C[C@@H]3O[C@H]1C[C@H](N)[C@H](O)[C@H](C)O1 [Doxorubicin]
Live Cells (viability), Mean±SD ([1]; 0.3 µM, 24h): -7.1±16.9 Δ/Δ%
Live Cells (viability), Mean±SD ([1]; 0.3 µM, 48h): -9±11.9 Δ/Δ%
drop in live cells assay ([1]; 0.3 µM, 72h): ~40%
Live Cells (viability), Mean±SD ([1]; 1 µM, 24h): -10.5±16.2 Δ/Δ%
number of live cells ([1]; 10 µM, 24, 48, 72 h): strong impact on the number of live cells, further decreasing over time
Caspases 3, 7 (apoptosis activation), Mean±SD ([2]; 0.3 µM, 24h): 0.6±15.9 Δ/Δ%
Caspases 3, 7 (apoptosis activation), Mean±SD ([2]; 0.3 µM, 48h): 109.5±125.1 Δ/Δ%
Caspases 3, 7 (apoptosis activation), Mean±SD ([2]; 10 µM, 72h): 113±14.3 Δ/Δ%
activation of caspases 3,7 (apoptosis) ([2]; 24, 48, 72 h): induced the largest activation of caspases 3,7
Annexin V (apoptosis activation), Mean±SD ([3]; 0.3 µM, 24h): 24.6±24 Δ/Δ%
Annexin V (apoptosis activation), Mean±SD ([3]; 0.3 µM, 48h): 31.2±28.5 Δ/Δ%
activation of Annexin V (apoptosis) ([3]; 24, 48, 72 h): largest activation of caspases 3,7, and of Annexin V
Necrosis, Mean±SD ([4]; 0.3 µM, 24h): 9.8±45.2 Δ/Δ%
Necrosis, Mean±SD ([4]; 0.3 µM, 48h): 40.2±103.1 Δ/Δ%
Necrosis, Mean±SD ([4]; 1 µM, 24h): 9.8±27 Δ/Δ%
Necrosis, Mean±SD ([4]; 1 µM, 48h): 72.9±120.4 Δ/Δ%
activation of necrosis ([4]; over time, especially at 72 h): also showed the activation of necrosis
Free Cmax [5]: 7400 nM
congestive heart failure, share of patients (patients): up to 48%

C#Cc1cccc(Nc2ncnc3cc(OCCOC)c(OCCOC)cc23)c1 [Erlotinib]
Free Cmax [5]: 3900 nM

Cc1cn(-c2cc(NC(=O)c3ccc(C)c(Nc4nccc(-c5cccnc5)n4)c3)cc(C(F)(F)F)c2)cn1 [Nilotinib]
Free Cmax [5]: 100 nM

N=C(N)c1ccc(OCCCCCOc2ccc(C(=N)N)cc2)cc1 [Pentamidine]
Free Cmax [5]: 200 nM
exposures in patients (TdP cases after intravenous administration) ([5]; prolonged intravenous administration, ref Sands et al., 1985, Conte et al., 1986, Cordes et al., 2005): 1 to 5 µM
FPDc prolongation [6]: 62%

CCN(CC)CCNC(=O)c1c(C)[nH]c(/C=C2\C(=O)Nc3ccc(F)cc32)c1C [Sunitinib]
Live Cells (viability), Mean±SD ([1]; 1 µM, 24h): -12.5±1.8 Δ/Δ%
Live Cells (viability), Mean±SD ([1]; 1 µM, 48h): -8.8±2.9 Δ/Δ%
Live Cells (viability), Mean±SD ([1]; 1 µM, 72h): 5.8±5.9 Δ/Δ%
number of live cells ([1]; 3 µM): did not cause a relevant change
Live Cells (viability), Mean±SD ([1]; 3 µM, 72h): -21.4±3.7 Δ/Δ%
Live Cells (viability), Mean±SD ([1]; 3 µM, 24h): -1.8±19.3 Δ/Δ%
Live Cells (viability), Mean±SD ([1]; 3 µM, 48h): -13.1±9.7 Δ/Δ%
number of live cells ([1]; 10 µM, 24, 48, 72 h): significant decrease in the number of live cells
concentration at which decrease in live-cell count occurred, times the median fCmax ([1]; 48 h time point): higher than 300
Caspases 3, 7 (apoptosis activation), Mean±SD ([2]; 1 µM, 24h): 11±8.3 Δ/Δ%
Caspases 3, 7 (apoptosis activation), Mean±SD ([2]; 1 µM, 72h): 70.2±31.9 Δ/Δ%
Caspases 3, 7 (apoptosis activation), Mean±SD ([2]; 10 µM, 48h): 42.9±61.5 Δ/Δ%
Caspases 3, 7 (apoptosis activation), Mean±SD ([2]; 10 µM, 72h): -45±134.8 Δ/Δ%
Annexin V (apoptosis activation), Mean±SD ([3]; 1 µM, 24h): -7.5±2.1 Δ/Δ%
Annexin V (apoptosis activation), Mean±SD ([3]; 1 µM, 48h): -11.9±4.5 Δ/Δ%
Annexin V (apoptosis activation), Mean±SD ([3]; 1 µM, 72h): -0.3±7 Δ/Δ%
Annexin V (apoptosis activation), Mean±SD ([3]; 3 µM, 24h): 7±8.3 Δ/Δ%
Annexin V (apoptosis activation), Mean±SD ([3]; 10 µM, 48h): 14.8±35.2 Δ/Δ%
Annexin V (apoptosis activation), Mean±SD ([3]; 10 µM, 72h): -32.7±15.7 Δ/Δ%
Necrosis, Mean±SD ([4]; 1 µM, 72h): 88.5±23.2 Δ/Δ%
necrosis-driven cell death ([4]; especially at 10 µM): predominant necrosis-driven cell death
Free Cmax [5]: 30 nM
